The values below come from EP2878592B1, “SYNTHESIS OF AMIDE DERIVATIVES OF SOME NONSTEROIDAL ANTIINFLAMMATORY DRUGS AS POTENTIAL PRO-DRUGS” (Kücükgüzel, Ilkay, priority 2013, dated 2015).

A short description of data set [1]: Partition coefficient (log P) study, chloroform / buffer, HPLC. The class given is physicochemical. Conditions: 37°C, 24 hours. How it is done:
20 mg of amide compound is dissolved in 20 ml of chloroform. 10 mL of this mixture is drawn out (divided into two). This 10 ml of mixture is added to 20 ml with pH 1.2 buffer solution. Likewise the other 10 ml of mixture is added to 20 ml with pH 6.8 buffer solution. The tubes placed in a 37°C incubator are mixed for 24 hours.
After 24 hours the chloroform phase was removed and transferred to separate tubes. The chloroform is evaporated. After evaporation of chloroform, 10 mL of ACN is added and thoroughly mixed. 0.1 ml of the sample is taken out of the mixture with ACN and this sample is added to 10 ml with the mobile phase (S1, S2, S3) (Cn=1ug/ml)
The standard samples used in this study were prepared according to the method of preparation of standard samples given above.
• HPLC Column Type: ACE C18 reverse phase. • Flow Rate: 1 ml/min. • Wavelength: 210 nm

The conditions of data set [2]: compared with ibuprofen, equimolar doses; cited from earlier work.
For data set [3] the following is noted: compared with the ibuprofen molecule; cited from earlier work.
[4] abbreviates: pH 1.2 buffer solution / chloroform.
Where [5] appears, read: pH 6.8 buffer solution / chloroform.

For `CC(C(=O)NC(CO)(CO)CO)c1ccc(-c2ccccc2)c(F)c1` (centres unmarked) [Compound 3b, N-[1,3-Dihydroxy-2-(hydroxymethyl)propan-2-yl]-2-(2-fluorobiphenyl-4-yl)propanamide], the “Log P (Experimental result)” value in data set [1] (setting [4]) was -0.14; in data set [1] (setting [5]), -0.95.
For the molecule `COc1ccccc1OC(=O)C(C)c1ccc(CC(C)C)cc1` (centres unmarked) [guiacol ester of ibuprofen], the “effect in relieving edema and in lowering fever” value in data set [2] is reported as “same effect”. Also, in data set [3], the “gastrointestinal and acute toxicities” value is listed as “much lower”.
With `CC(C)Cc1ccc(C(C)C(=O)NC(CO)(CO)CO)cc1` (centres unmarked) [Compound 2b, N-[1,3-dihydroxy-2-(hydroxmethyl)propan-2-yl]-2-(4-isobutylphenyl)propanamide], the entries for the “Log P (Experimental result)” value in data set [1] (setting [4]) and in data set [1] (setting [5]) were -0.12 and -0.41, respectively.
Consider `C[C@H](C(=O)NC(CO)(CO)CO)c1cccc(C(=O)c2ccccc2)c1` [Compound 1b, (+)-(2S)-2-(3-Benzoylphenyl)-N-[1,3-dihydroxy-2-(hydroxymethyl)propan-2-yl]propanamide], for which the figures for the “Log P (Experimental result)” value in data set [1] (setting [4]) and in data set [1] (setting [5]) were -0.05 and “+0.05”, respectively.
